According to US6682892B2, “Method for treating herpes viruses” (priority 2000, dated 2004):
Where two headings read alike, the source gives them in different places.

Experiments:
Format in all cases: cell-based
[1] = system: HCMV AD169-M1 (V823A, V824L); experiment: Plaque reduction assay, 4-oxo-DHQ resistant HCMV AD169-M1
Protocol: (§1) Antiviral activity of compounds against herpesviruses such as HSV-1, HSV-2, or HCMV can be measured using plaque reduction assays. 0.1 ml of media containing approximately 50 PFU of virus is added to each well of a 24-well cell culture dish containing a confluent monolayer of cells (Vero cells for HSV-1 and HSV-2, HFF cells for HCMV). Compounds are dissolved in 100% DMSO and diluted in 100% DMSO as 200× stocks of the desired final drug concentration. Typically 5-6 two-fold dilutions are prepared for each compound. Dilutions of compounds are then added to media containing 0.8% CMC resulting in a final 1× drug concentration. After the virus-infected cells have incubated for 1 h at 37° C., the virus innoculum is removed and 1 ml of media containing 0.8% CMC and the various concentrations of compound is added to each well of the dish. The dish is incubated at 37° C. for approximately 2-3 days (HSV-1 and HSV-2) or 6-9 days (HCMV) to allow sufficient growth of virus to form plaques in the cell monolayer. Plaques can be observed and counted microscopically or by staining the cells with 0.1% crystal violet in 20% ethanol. […] Antiviral activity of a compound is expressed as the concentration of compound predicted to reduce the number of plaques in a well by 50% (IC50). The IC50 values are calculated by plotting the per cent inhibition vs. concentration of compound using EXCEL software for linear regression.
A plasmid containing the wild-type HCMV polymerase gene is modified to contain the V823A or V823A and V824L mutations using a site-directed mutagenesis Kit (Stratagene Corp.) and following the manufactures's protocol. HFF cells are plated into T25 tissue culture flasks to achieve 80% confluency at the time of the transfection. Wild type HCMV AD 169 DNA and plasmid DNA containing the mutant HCMV polymerase gene are mixed at a ratio of 1:2 (2 ug of viral DNA to 4 ug of plasmid DNA). DNA's are transfected using superfect transfection reagent according to methods recommended by the manufacturer (Quiagen Inc.). Cells are harvested five days posttransfection, freeze-thawed to release virus and half of the sample is used to infect HFF cell monolayers. Cells are overlayed with media containing 20 uM 4-oxo-DHQ compound 2 (see FIG. 1). Serial passage is repeated seven times in the presence of 20 uM compound 2 and virus isolates are then plaque purified three times prior to preparation of viral stock.
In order to isolate an HCMV resistant mutant marker rescue experiments are done. Plasmids containing the mutant polymerase genes are transfected into HFF cells along with wild type HCMV AD169 DNA. The resulting virus is then serially passaged in the presence of 20 uM compound 1 (see FIG. 1). A 4-oxo-DHQ resistant virus is isolated from marker rescue studies done with the HCMV polymerase gene containing mutations that result in the V823A, V824L amino acid changes, but not with the gene containing V823A change alone.

HCMV AD169 = experiment: Plaque reduction assay, HCMV AD169
Protocol: as §1

HSV-1 KOS = experiment: Plaque reduction assay, HSV-1 KOS; settings: Table 5, wild type strain; read-out: Plaque Reduction Assay - IC50 (μM) HSV-1 KOS
Protocol: as §1
(§2) A panel of viruses consisting of four strains of HSV-1 (KOS, F, DJL, Patton) and three strains of HSV-2 (MS, 35D, 186) are tested in a plaque reduction assay against four different 4-oxo-DHQ compounds (#1, 2, 4, 5 as shown in FIG. 1), and one 4-oxo-DHTP compound (#3 as shown in FIG. 1) and against Acyclovir. The six drugs inhibited replication of the seven virus strains with IC50 values ranging from 2-10 μM (Table 1). In order to select for 4-oxo-DHQ resistant mutants, HSV-1 strains KOS, F, and DJL along with HSV-2 strains 186 and MS are serially passaged in the presence of 20 uM compound 1. Following the seventh passage, 4-oxo-DHQ resistant virus from each strain are plaque purified three times and high-titer stocks are made.

HSV-1 KOS-M1 (V823A) = experiment: Plaque reduction assay, 4-oxo-DHQ resistant HSV-1 KOS-M1; settings: Table 5, mutant selected for 4-oxo-DHQ resistance; read-out: Plaque Reduction Assay - IC50 (μM) HSV-1 KOS-M1
Protocol: as §1
(§3) Vero cells are plated out at a density of 3.5×10^5 cells per well in a six well tissue culture plate. Cells are infected with HSV-1 KOS at a multiplicity of infection (moi) of 0.1 pfu/cell and 1 h post infection the cells are overlayed with 3 ml media containing 20 uM of a 4-oxo-DHQ. Cultures are incubated for 20 h at 37° C., freeze/thawed to release cell-associated virus, and 0.1 ml of culture is used to infect a new monolayer of Vero cells (one passage). Serial passage is repeated seven times in the presence of 20 uM drug. Virus isolates are then plaque purified three times prior to preparation of stocks. 4-oxo-DHQ resistant HSV-1 and HSV-2 may also be selected by the marker transfer method described below using wild-type HSV DNA and the corresponding mutant HSV polymerase gene.
as §2

HSV-2 MS-M1 (V826A) = experiment: Plaque reduction assay, 4-oxo-DHQ resistant HSV-2 MS-M1; settings: Table 5, mutant selected for 4-oxo-DHQ resistance; read-out: Plaque Reduction Assay - IC50 (μM) HSV-2 MS-M1
Protocol: as §1, §3, §2

HSV-2 MS = experiment: Plaque reduction assay, HSV-2 MS; settings: Table 5, wild type strain; read-out: Plaque Reduction Assay - IC50 (μM) HSV-2 MS
Protocol: as §1, §2

[2] = Table 5, mutant selected for 4-oxo-DHQ resistance, read-out: Plaque Reduction Assay - IC50 (μM) HCMV AD169-M1
[3] = Table 5, wild type strain, read-out: Plaque Reduction Assay - IC50 (μM) HCMV AD169
[4] = Human betaherpesvirus 5, AD169, Table 5, wild type strain, read-out: Plaque Reduction Assay - IC50 (μM) HCMV AD169

Compound | IC50 [1, 2] | IC50 (HCMV AD169; [3]) | IC50 (HSV-1 KOS) | IC50 (HSV-1 KOS-M1 (V823A)) | IC50 (HSV-2 MS-M1 (V826A)) | IC50 (HSV-2 MS) | IC50 ([1]; Human betaherpesvirus 5, AD169, read-out: HCMV AD169 - M1 IC50 (μM)) | increase in IC50 / change in sensitivity, HCMV AD169-M1 ([1]; {}) | IC50 (HCMV AD169; Human betaherpesvirus 5, AD169, Table 4, plaque reduction, wild type, read-out: HCMV AD169 IC50) | IC50 (HCMV AD169; [4]) | IC50 ([1]; Human betaherpesvirus 5, AD169, read-out: Plaque Reduction Assay - IC50 (μM) HCMV AD169-M1)
O=C(NCc1ccc(Cl)cc1)c1cn2c(CO)cc3cc(CN4CCOCC4)cc(c1=O)c32 [Compound 9] | 3.1 µM | < 0.1 µM | 1.9 µM | > 50 µM | 48.7 µM | 0.9 µM |  |  |  |  | 
Cn1cc(C(=O)NCc2ccc(Br)cc2)c(=O)c2cc(CN3CCOCC3)sc21 [Compound 10] | > 16 µM | 1.1 µM | 15.8 µM | > 50 µM | > 50 µM | 29.2 µM |  |  |  |  | 
O=C(NCc1ccc(Cl)cc1)c1cn(C2COC2)c2ccc(CN3CCOCC3)cc2c1=O [Compound 11] | 3.9 µM | 0.7 µM | 3.1 µM | > 50 µM | > 50 µM | 3 µM |  |  |  |  | 
Cn1cc(C(=O)NCc2ccc(Cl)cc2)c(=O)c2cc(CN3CCOCC3)cc(C#CCO)c21 [Compound 12] | 1.1 µM | 0.2 µM | 1.3 µM | > 50 µM | 12.5 µM | 0.4 µM |  |  |  |  | 
Cn1cc(C(=S)NCc2ccc(Cl)cc2)c(=O)c2cc(C#CCO)ccc21 [Compound 13] | > 16 µM | 2.7 µM | 5.5 µM | < 25 µM | > 50 µM | 5.3 µM |  |  |  |  | 
Cn1nc(C(=O)NCc2ccc(Cl)cc2)c(=O)c2cc(C#CCO)ccc21 [Compound 14] | 18.4 µM | 0.9 µM | 28.4 µM | > 50 µM | > 50 µM | 1.6 µM |  |  |  |  | 
Cc1nc2c(cc1C#CCO)c(=O)c(C(=O)NCc1ccc(Cl)cc1)cn2C [Compound 15] | 7.7 µM | 0.7 µM | > 50 µM | > 50 µM | > 50 µM | 5.9 µM |  |  |  |  | 
Nc1nc(O)c2ncn(COC(CO)CO)c2n1 [Ganciclovir, reference compound] |  |  |  |  |  |  | 1 µM | < 2 fold | 0.9 µM | 0.8 µM | 
O=c1[nH]c(=O)n([C@H]2C[C@H](O)[C@@H](CO)O2)cc1I [Iudr, Iododeoxyuridine, reference compound] |  |  | 1.1 µM | 0.8 µM | 6.1 µM | 5 µM |  |  |  |  | 
O=C(O)P(=O)(O)O [PFA, Foscarnet, reference compound] |  |  |  |  |  |  |  |  |  | 38 µM | < 20 µM
